Measured values published in patent publication US20140249135A1, “PIM KINASE INHIBITORS AND METHODS OF THEIR USE” (NOVARTIS AG, priority 2007, published 2014).

Assays:
Pim2 kinase = Pim2 kinase (Homo sapiens, UniProt Q9P1W9); experiment: Pim2 ATP depletion assay; format: biochemical; details: read-out: IC50 (μM) PIM2;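 note: Luciferase-based luminescent readout of ATP remaining after PIM2 phosphorylates a BAD peptide, final 5 nM enzyme, 4 µM ATP, 10 µM peptide, 2.5% DMSO, run to roughly half ATP consumption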
Pim2 kinase, sequence (Q9P1W9 whole entry): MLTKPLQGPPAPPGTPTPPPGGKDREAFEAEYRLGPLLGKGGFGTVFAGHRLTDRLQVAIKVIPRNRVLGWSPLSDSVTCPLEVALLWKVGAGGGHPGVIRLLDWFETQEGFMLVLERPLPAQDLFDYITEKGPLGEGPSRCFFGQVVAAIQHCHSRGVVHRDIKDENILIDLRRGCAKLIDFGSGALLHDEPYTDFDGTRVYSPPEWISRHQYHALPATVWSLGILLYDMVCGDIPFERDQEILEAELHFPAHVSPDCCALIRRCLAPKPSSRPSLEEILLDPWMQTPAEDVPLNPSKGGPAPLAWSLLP

Pim3 kinase = Pim3 kinase (Homo sapiens, UniProt Q86V86); experiment: Pim3 ATP depletion assay; format: biochemical; details: read-out: IC50 (μM) PIM3
Pim1 kinase = Pim1 kinase (Homo sapiens, UniProt P11309); experiment: Pim1 ATP depletion assay; format: biochemical; details: Pim1 ATP depletion assay; read-out: IC50 (μM) PIM1;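 note: Luciferase-luciferin luminescence readout of residual ATP after PIM1 transfers phosphate to a peptide substrate, 40 µM ATP added, reaction run to roughly half ATP consumption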
Pim1 kinase, sequence (P11309 whole entry): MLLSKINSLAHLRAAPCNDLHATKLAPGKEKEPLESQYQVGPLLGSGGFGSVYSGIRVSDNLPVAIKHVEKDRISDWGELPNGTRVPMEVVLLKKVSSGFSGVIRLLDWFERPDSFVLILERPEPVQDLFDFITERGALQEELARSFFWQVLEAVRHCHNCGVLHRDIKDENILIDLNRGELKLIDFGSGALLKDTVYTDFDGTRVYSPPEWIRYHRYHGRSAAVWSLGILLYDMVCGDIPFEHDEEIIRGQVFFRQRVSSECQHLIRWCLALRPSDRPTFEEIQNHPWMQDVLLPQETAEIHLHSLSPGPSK

HEL 92.1.7 cells = experiment: Cell proliferation assay (CellTiter-Glo), HEL 92.1.7; format: cell-based; details: Homo sapiens, read-out: EC50 (μM) HEL 92.1.7
Procedure: HEL 92.1.7 cells (ATTC No. TIB-180, an erythroleukemia line derived from malignant peripheral blood), MV4-11 cells (ATCC No. CRL-9591, a human acute monocytic leukemia line) and PC3 cells (ATCC No. CRL-1435, a human prostatic adenocarcinoma line) were cultured in RPMI1640 supplemented with 10% FBS, sodium pyruvate and antibiotics. Cells were plated in the same medium at a density of 1000 cells per well into 96 well tissue culture plates, with outside wells vacant, on the day of assay.
Test compounds supplied in DMSO were diluted into DMSO at 500 times the desired final concentrations before dilution into culture media to 2 times final concentrations. Equal volumes of 2× compounds were added to the cells in 96 well plates and incubated at 37° C. for 3 days.
After 3 days plates were equilibrated to room temperature and equal volume of CellTiter-Glow Reagent (Promega) was added to the culture wells. The plates were agitated briefly and luminescent signal was measured with luminometer. The percent inhibition of the signal seen in cells treated with DMSO alone vs. cells treated with control compound was calculated and used to determine EC50 values (i.e., the concentration of a test compound that is required to obtain 50% of the maximum effect in the cells) for tested compounds, as shown in Example 763.

SMILES | IC50 (Pim2 kinase) [µM] | IC50 (Pim3 kinase) [µM] | IC50 (Pim1 kinase) [µM] | EC50 (HEL 92.1.7 cells) [µM]
Nc1ncc(Br)nc1C(=O)Nc1cnccc1N1CCCC(N)C1 (stereo not drawn) [Example 181, 3-amino-N-[4-(3-aminopiperidin-1-yl)pyridin-3-yl]-6-bromopyrazine-2-carboxamide] | < 1 | < 1 | < 1 | < 1
CS(=O)(=O)c1ccc(-c2ccc(N)c(C(=O)Nc3cnccc3N3CCC[C@H](N)C3)n2)cc1 [Example 319, 3-amino-6-(4-methane-sulfonyl-phenyl)-pyridine-2-carboxylic acid ((S)-3-amino-3,4,5,6-tetrahydro-2H-[1,4′]bi-pyridinyl-3′-yl)-amide] | < 1 | < 1 | < 1 | 1 to 5
Cc1ccc(S(=O)(=O)N2CCCC2)cc1-c1ccc(N)c(C(=O)Nc2cnccc2N2CCC[C@H](N)C2)n1 [Example 321, 3-amino-6-[2-methyl-5-(pyrrolidine-1-sulfonyl)-phenyl]-pyridine-2-carboxylic acid ((S)-3-amino-3,4,5,6-tetrahydro-2H-[1,4′]bi-pyridinyl-3′-yl)-amide] | < 1 | < 1 | < 1 | 1 to 5
Nc1ccc(-c2cc(C(=O)NC3CCCCC3)ccc2F)nc1C(=O)Nc1cnccc1N1CCC[C@H](N)C1 [Example 324, 3-amino-6-(5-cyclohexyl-carbamoyl-2-fluoro-phenyl)-pyridine-2-carboxylic acid ((S)-3-amino-3,4,5,6-tetra-hydro-2H-[1,4′]bipyridinyl-3′-yl)-amide] | < 1 | < 1 | < 1 | < 1
COC(=O)c1ccc(-c2ccc(N)c(C(=O)Nc3cnccc3N3CCC[C@H](N)C3)n2)c(F)c1 [Example 325, 4-[5-amino-6-((S)-3-amino-3,4,5,6-tetrahydro-2H-[1,4′]bi-pyridinyl-3′-ylcarbamoyl)-pyridin-2-yl]-3-fluoro-benzoic acid methyl ester] | < 1 | < 1 | < 1 | 1 to 5
CCCNC(=O)c1ccc(F)c(-c2ccc(N)c(C(=O)Nc3cnccc3N3CCC[C@H](N)C3)n2)c1 [Example 326, 3-amino-6-(2-fluoro-5-propyl-carbamoyl-phenyl)-pyridine-2-carboxylic acid ((S)-3-amino-3,4,5,6-tetrahydro-2H-[1,4′]bipyridinyl-3′-yl)-amide] | < 1 | < 1 | < 1 | 1 to 5
CCNC(=O)c1ccc(F)c(-c2ccc(N)c(C(=O)Nc3cnccc3N3CCC[C@H](N)C3)n2)c1 [Example 327, 3-amino-6-(5-ethylcarbamoyl-2-fluoro-phenyl)-pyridine-2-carboxylic acid ((S)-3-amino-3,4,5,6-tetrahydro-2H-[1,4′]bi-pyridinyl-3′-yl)-amide] | < 1 | < 1 | < 1 | 1 to 5
CCN(CC)S(=O)(=O)c1ccc(C)c(-c2ccc(N)c(C(=O)Nc3cnccc3N3CCC[C@H](N)C3)n2)c1 [Example 329, 3-amino-6-(5-diethyl-sulfamoyl-2-methyl-phenyl)-pyridine-2-carboxylic acid ((S)-3-amino-3,4,5,6-tetra-hydro-2H-[1,4′]bipyridinyl-3′-yl)-amide] | < 1 | < 1 | < 1 | 5 to 10
Cc1ccc(S(=O)(=O)N(C)C)cc1-c1ccc(N)c(C(=O)Nc2cnccc2N2CCC[C@H](N)C2)n1 [Example 330, 3-amino-6-(5-dimethyl-sulfamoyl-2-methyl-phenyl)-pyridine-2-carboxylic acid ((S)-3-amino-3,4,5,6-tetra-hydro-2H-[1,4′]bipyridinyl-3′-yl)-amide] | < 1 | < 1 | < 1 | > 10
